# Laboratory results from patent publication US11207369B2, “Compositions and methods for modulating ciliogenesis” (UNIVERSITY OF PITTSBURGH-OF THE COMMONWEALTH SYSTEM OF …, priority 2017, dated 2021).
# “Also recorded” adds a separate entry of the source.
# How the values were obtained:
# [1] = system: Hes1, Hes5, Hey1, Notch1, Psen1, Hif1α, nNOS, iNOS, eNOS; test: qPCR of gene expression in mouse tracheal epithelial cells during ciliogenesis; assay type: cell-based; conditions: 2 nM DAPT vs untreated, varying time points in suspension culture, most prominently day 5
# Protocol: FIGS. 7(A-I) are graphs showing quantitative […] (qPCR) of gene expression in mouse tracheal epithelial cells during ciliogenesis. Cells were grown to confluence in stationary culture, treated with collagenase, then placed into suspension culture having 0 nM or 2 nM DAPT, which marked the “baseline” time point. At the indicated times, qPCR experiments were performed to detect gene expression of Hes1 (FIG. 7A), Hes5 (FIG. 7B), Hey1 (FIG. 7C), Psen1 (FIG. 7D), Hif1α (FIG. 7E), Notch1 (FIG. 7F), nNOS (FIG. 7G), iNOS (FIG. 7H), and eNOS (FIG. 7I).
# Indeed, expression of multiple genes such as Hes1, Hes5, Hey1, Notch1, Psen1, Hif1α, nNOS, iNOS, and eNOS was altered at varying time points during ciliogenesis in suspension culture containing 2 nM DAPT, as compared to untreated (no DAPT) controls (FIGS. 7A-[…]). […] This effect was most marked for the three isoforms of nitric oxide synthase (NOS).
# [2] = system: airway epithelial cells; test: Inhalational administration to subjects with COPD, video-microscopy of airway epithelial cells; assay type: in vivo, human; conditions: approx. 1 mg/kg inhaled once per day for seven days
# Protocol: Ten subjects are diagnosed with Chronic Obstructive Pulmonary Disease (COPD). Each subject provides informed consent regarding providing epithelial cell samples and to receiving a blinded treatment of either DAPT or a control placebo. […] The epithelial cells are placed into suitable medium such as Leibovitz-15 medium. Thereafter, cell samples are evaluated for percentage ciliation, cilia length, and/or cilia beat frequency by video-microscopy, and the results are recorded. Video-microscopy confirms each subject has epithelial cells which are reduced in cilia number, cilia length, and/or cilia beat frequency compared to averages or standards present in the medical literature.
# DAPT is inhalationally administered to five of the subjects via a nebulizer or an inhaler (hereinafter, “DAPT-treated subjects”). […]
# (§1) The epithelial cells are placed into suitable medium such as Leibovitz-15 medium. Thereafter, cell samples are evaluated for percentage ciliation, cilia length, and/or cilia beat frequency by video-microscopy, and the results are recorded. Video-microscopy confirms each of the five DAPT-treated subjects has epithelial cells which are increased in cilia number, cilia length, and/or cilia beat frequency as compared to both 1) the epithelial cells of placebo-treated subjects, and 2) the pre-treatment measurements recorded for epithelial cells of each respective DAPT-treated subject. […]
# [3] = system: mouse tracheal epithelial cells; test: Ex vivo reciliation of mouse tracheal epithelial cells in suspension culture (video-microscopy); assay type: cell-based
# Text: All animal protocols were approved by the University of Pittsburgh Animal Care and Use Committee. Wild-type, C57B6, adult mice (6-8 weeks of age) were euthanized with inhalational CO2, anterior neck regions were washed with 70% ethanol, and a transverse incision was made across the neck at the mid-cervical level. […] The trachea was gently dissected from the underlying adherent esophagus and connective tissue, pulled out and transected proximally first from the larynx and then distally as far down as possible, close to the carina, and placed in a petri dish containing about 10 ml Leibovitz-15 solution (Gibco; 21083). Isolated tracheas were cleaned of adherent muscle tissue, blood vessels and fat under a dissecting microscope, then incised, splaying the trachea length-wise.
# Twelve ml of Leibovitz-15 solution were placed in a 15 ml falcon tube, and 6 cleaned, incised tracheas were added to each tube. Pronase (Protease from Streptomyces griseus, Sigma, P5147) was added to a final concentration of 1.5 mg/ml (Stock solution, 150 mg/ml, 100×) and placed in 4° C. overnight with gentle shaking. After incubation, Pronase was neutralized with addition of fetal bovine serum to a final concentration of 10% (1.2 ml/tube). Tracheas and denuded epithelial cells were centrifuged at 1200 rpms for 6 minutes. Supernatant was aspirated, and trachea/cells were re-suspended in 12 ml Stationary media (500 ml DMEM/F12, 10 ml of Ultroser G, and 10 ml of 100× Antibiotics-Antimycotic). The cells/tracheas were pipetted up and down vigorously 12-20 times, and vortexed to re-suspend pelleted tracheas if necessary. Trachea/cells were centrifuged again, supernatants were aspirated, pellets were re-suspended in 6 ml of stationary medium, and then everything was transferred to a Primaria plate (Corning, 353803) or a regular cell culture plate (Corning, 353003), and incubated at 37° C./5% CO2 for 6 hours. This was performed to plate out fibroblasts, thereby minimizing contamination of tracheal epithelial cells with fibroblasts. After incubation, non-adherent cells were collected by lightly washing the plates with stationary media present in the plates. Cells were pelleted, supernatant aspirated, cells re-suspended in 12 ml of stationary medium and added to a 6-well plate (2 ml/well) coated with rat tail collagen.
# Tracheal epithelial cells were obtained from mice and processed for stationary culture as detailed above. The tracheal epithelial cells were placed onto rat-tail collagen coated wells and then incubated at 37° C./5% CO2 for 36-48 hrs. Over the course of about 48 hours, the cells seeded onto the collagen lost their cilia and underwent proliferative growth, expanding in numbers. […]
# [4] = system: human nasal epithelial cells; test: Ex vivo reciliation of human nasal epithelial cells in suspension culture (video-microscopy); assay type: cell-based; conditions: 2 nM DAPT vs regular media
# Protocol: Cells were immediately placed into 5 ml Leibovitz-15 medium prior to processing for stationary culture.
# These cells were spun down, the supernatant was aspirated, cells were resuspended in 6 ml of stationary medium, and then plated onto 3 wells of a 6-well rat tail collagen coated plate. The media was changed 48-72 hours post plating and fed every 2 days until confluence was reached. Following confluence, the treatment of mouse tracheal epithelial cells and human nasal epithelial cells was identical e.g., placement into suspension culture, video microscopy, etc. siRNA knockdown was only performed in mouse tracheal tissue due to the paucity of human nasal epithelial cells.
# Once confluence was reached, typically occurring between about 7 to 10 days, the stationary media was aspirated, and collagen was digested with 1 ml of Collagenase 4 (200 IU/ml, Worthington, LS004210) for 75-90 mins at 37° C./5% CO2. After incubation, collagenase was neutralized using 2 ml of Suspension media (500 ml DMEN/F12, 50 ml NuSerum, 10 ml 100× Antibiotics-Antimycotic). Cells adherent to the bottom of the plate were gently scrapped off with a cell scraper (Fisherbrand, 08-100-241). […]
# Reciliation was observed by about days 7 to 9 with high-speed video-microscopy (200 fps) with a 60× oil-immersion lens (FIG. 2A). […] The outlined total surface and ciliated surface alone was quantified. Extent of ciliation was calculated by dividing the length of ciliated surface by the length of the entire surface available for ciliation, and converted to a percentage.
# To measure cilia length in reciliated nasal tissue, each recording was processed with a custom script written for Fiji, an open-source image analysis software (Schindelin, et al., Nat. Methods, 2012, 9:676-682). This script used the Temporal Median filter to segment patches of cilia based on movement, and the Thickness tool in the BoneJ analysis toolkit (Doube, et al., Bone, 2010, 47:1076-1079) measured average cilia length. Ciliary beat frequency was measured in cilia beats per second (Hertz).] […]
# [5] = system: ependymal cells; test: Intrathecal administration to subjects with hydrocephalus, video-microscopy of ependymal cells; assay type: in vivo, human; conditions: approx. 1 mg/kg intrathecal once
# Protocol: Ten subjects are diagnosed with hydrocephalus. Each subject provides informed consent regarding providing epithelial cell samples and to receiving a blinded treatment of either DAPT or a control placebo. Intrathecal biopsy is used to obtain ependymal cells from the cerebrospinal fluid of each subject. The ependymal cells are placed into suitable medium such as Leibovitz-15 medium. Thereafter, cell samples are evaluated for percentage ciliation, cilia length, and/or cilia beat frequency by video-microscopy, and the results are recorded. Video-microscopy confirms each subject has ependymal cells which are reduced in cilia number, cilia length, and/or cilia beat frequency compared to averages or standards present in the medical literature. […]
# as §1, with “On day eight post-injection, ependymal” for “The epithelial”, “obtained from the cerebrospinal fluid of each subject by intrathecal biopsy. […]” for “placed into suitable medium such as Leibovitz-15 medium.”, “ependymal” for “epithelial”
# [6] = day eight, vs placebo and pre-treatment
# [7] = 2 nM DAPT vs untreated, 8 days suspension culture
# [8] = 12 subjects with congenital heart defects
compound,measurement,setting,value
"C[C@H](NC(=O)Cc1cc(F)cc(F)c1)C(=O)N[C@H](C(=O)OC(C)(C)C)c1ccccc1 [DAPT, N—[N-(3,5-Difluorophenacetyl)-L-alanyl]-S-phenylglycine t-butyl ester]","expression of Hes1, Hes5, Hey1, Notch1, Psen1, Hif1α, nNOS, iNOS and eNOS",[1],altered
same,"cilia number, cilia length, and/or cilia beat frequency of epithelial cells",[2]; [6],increased
same,"symptoms of COPD (e.g., coughing)",[2]; some subjects,ameliorated
same,cilia beat frequency,[3]; [7],significantly increased
same,cilia length,[3]; [7],significantly increased
same,increased ciliogenesis over baseline (percent ciliation),"[3]; 2 nM DAPT, 8 days suspension culture",~3 fold
same,"toxicity to cells (cell death, very few if any ciliated cells)","[3]; 2 μM DAPT or more, DMSO volume constant",toxic to cells
same,percentage reciliation (percent ciliation),[4]; 12 paired samples from subjects with congenital heart defects,significantly greater; also recorded: significant increases
same,cilia beat frequency,[4]; [8],significantly increased; also recorded: significant increases
same,cilia length,[4]; [8],significantly increased; also recorded: significant increases
same,"cilia number, cilia length, and/or cilia beat frequency of ependymal cells",[5]; [6],increased
same,"symptoms of hydrocephalus (e.g., headache)",[5]; some subjects,ameliorated
